What was measured:
[1] = Stability of BPD stock solution; assay type: physicochemical; details: 5 mg BPD powder in 1 mL dimethyl sulfoxide, wrapped in aluminum foil
Description: To prepare the BPD stock solution, 5 mg of the BPD powder was dissolved with 1 mL of dimethyl sulfoxide in a 2 mL cryovial container. The molarity of the sample was confirmed with a microplate reader using the established molar extinction coefficient of BPD in dimethyl sulfoxide (DMSO; ˜34,895 M^−1 cm^−1 at 687 nm). The container was wrapped in aluminum foil and stored in a −20° C. freezer.

[2] = Singlet oxygen production (Singlet Oxygen Sensor Green) in phantom punch biopsies; details: 20 μM
Description: For the tumor-mimicking mechanical phantom, 5 mm-deep portions of the phantom were removed via a biopsy tool with a diameter of 6.4 mm and placed into a 96-well, clear flat-bottom microplate. Singlet oxygen production was determined using Singlet Oxygen Sensor Green (SOSG) and a microplate reader before irradiation. The SOSG fluorescence was measured with excitation/emission wavelengths of 504/525 nm. The samples were then irradiated with a 690 nm continuous-wave laser at various radiant exposures, and singlet oxygen production was measured using SOSG and the microplate reader after irradiation. The difference between the obtained SOSG fluorescence values between pre- and post-irradiance samples constituted the relative singlet oxygen production of that particular punch biopsy sample.
Table 4 details a strategy for measuring the singlet oxygen production of a sample (e.g., phantom specimen from a punch biopsy). […] 0 μM (EC-Ethanol only), phantom only, and BPD only (dissolved in DMSO) groups were included as negative controls, while the Rose Bengal group (type II photosensitizer capable of generating singlet oxygen via 525 nm light absorption) was included as a positive control. This strategy can be applied to estimate the relative production of singlet oxygen of photosensitizers in other liquid needle injections.
Upon red light (690 nm) activation of BPD-EC-EtOH, the fluorescence signal generated from BPD can be used for imaging of the depot, as shown in FIG. 6E.

Compound | stability of reconstituted stock solution (in words) [1] | Post-irradiation RFU ([2]; SOSG fluorescence 504/525 nm) [RFU] | Pre-irradiation RFU ([2]; SOSG fluorescence 504/525 nm) [RFU] | Relative singlet oxygen production (SOSG fluorescence difference) ([2]; difference post- minus pre-irradiation) [RFU]
benzoporphyrin derivative [BPD] | generally stable at −20 °C for several months | – | – | –
O=C([O-])c1c(Cl)c(Cl)c(Cl)c(Cl)c1-c1c2cc(I)c(=O)c(I)c-2oc2c(I)c([O-])c(I)cc12.[Na+].[Na+] [Rose Bengal] | – | 64703 | 18345 | 46358

Source: patent US20250161453A1, “LIGHT-ACTIVATABLE, SUSTAINED-EXPOSURE ETHANOL INJECTION” (University of Maryland, College Park, priority 2022, published 2025)
